Experimental data: patent US20120087980A1, “STIMULATION OF NEUROREGENERATION BY FLAVONOID GLYCOSIDES” (priority 2010, published 2012)

Assays:
[1] = test system: PC3 human prostatic cancer cells, NIH 3T3 fibroblasts, and podocytes; settings: PC3, NIH 3T3 fibroblasts, references [6-8]; cited from earlier work
[2] = test system: NG108-15 neuroblastoma-glioma hybridoma cells and the ND7/23 neural cell line; test: Incubation of neural cell lines with 15 flavonoids, neurite formation; assay type: cell-based; settings: for neurite formation: screen of 15 flavonoids, NG108-15 and ND7/23 cells
Protocol: Cell culture. The NG108-15 neuroblastoma/glioma cells and ND7/23 rat DRG/mouse neuroblastoma cells were seeded at 10^4 cells/cm^2 on laminin coated wells and stimulated for 48 hours with 40 μM isoquercitrin (Cat No 00140585, Sigma) alone or in combination with either 10 μM Rho Kinase inhibitor Y-27632 (Cat No Y0503, Sigma) or 0.25 μg/ml Rho inhibitor Exoenzyme C3 Transferase (Cat No CT04, Cytoskeleton). Later, isoquercitrin stimulated cells were incubated with 0.2 unit/ml Rho Activator Calpeptin (Cat No CN01, Cytoskeleton) or, alternatively with 0.25 μM Phospholipase C inhibitor U73122 (Cat No 662035, Calbiochem). Live Cell Imaging. During incubation, cells were observed by time-lapse live cell imaging with Cell-IQ (Chip-Man Technologies, Ltd). Quantitative analysis of neurite length/cell was performed using Cell-IQ Analyser Software. Cell imaging by Immunofluorescence. Cells were cultured for 48 hrs on a Chamber Slide™ System (Lab-Tek™) under the above described conditions. Then, the cells were fixed and permeabilized with 4% formaldehyde/0.1% Triton X100 in PBS for 20 min at 4° C. After blocking with PBS containing 20% FBS and 5% BSA for 1 h at room temperature, they were incubated with mAb anti-synaptotagmin-1 (1:200, SY Synaptic Systems) for 1 hr at room temperature. Following three washes in PBS, cells were incubated with Alexa Fluor® 488 goat anti-mouse IgG/IgM (Invitrogen) for 30 min at room temperature. Afterwards, cells were incubated with 0.13 μg/ml phalloidin in the dark for 30 min at 4° C. Finally DAPI was added and last 30 min. Samples were rinsed three times and kept in PBS. The imaging was performed using Confocal Laser Scanning Microscope (Carl Zeiss AG). Assay for RhoA activation. […] The plate was incubated with an HRP detection reagent for 15 min at 37° C. and, after addition of an HRP stop buffer, the absorbance was immediately recorded at 490 nm. […] The purity and concentration were determined using a Nanoprop ND 1000 (Nanoprop Technologies, Delaware, USA) and a Bioanalyzer 2100 (Agilent, Waldbronn, Germany). […]

NG108 cells = test: Microarray gene expression analysis (whole Mouse Genome 4x44k OligoMicroarrays); assay type: cell-based; settings: 40 uM isoquercitrin
Protocol: Cell culture. The NG108-15 neuroblastoma/glioma cells and ND7/23 rat DRG/mouse neuroblastoma cells were seeded at 10^4 cells/cm^2 on laminin coated wells and stimulated for 48 hours with 40 μM isoquercitrin (Cat No 00140585, Sigma) alone or in combination with either 10 μM Rho Kinase inhibitor Y-27632 (Cat No Y0503, Sigma) or 0.25 μg/ml Rho inhibitor Exoenzyme C3 Transferase (Cat No CT04, Cytoskeleton). Later, isoquercitrin stimulated cells were incubated with 0.2 unit/ml Rho Activator Calpeptin (Cat No CN01, Cytoskeleton) or, alternatively with 0.25 μM Phospholipase C inhibitor U73122 (Cat No 662035, Calbiochem). Live Cell Imaging. During incubation, cells were observed by time-lapse live cell imaging with Cell-IQ (Chip-Man Technologies, Ltd). Quantitative analysis of neurite length/cell was performed using Cell-IQ Analyser Software. Cell imaging by Immunofluorescence. Cells were cultured for 48 hrs on a Chamber Slide™ System (Lab-Tek™) under the above described conditions. Then, the cells were fixed and permeabilized with 4% formaldehyde/0.1% Triton X100 in PBS for 20 min at 4° C. After blocking with PBS containing 20% FBS and 5% BSA for 1 h at room temperature, they were incubated with mAb anti-synaptotagmin-1 (1:200, SY Synaptic Systems) for 1 hr at room temperature. Following three washes in PBS, cells were incubated with Alexa Fluor® 488 goat anti-mouse IgG/IgM (Invitrogen) for 30 min at room temperature. Afterwards, cells were incubated with 0.13 μg/ml phalloidin in the dark for 30 min at 4° C. Finally DAPI was added and last 30 min. Samples were rinsed three times and kept in PBS. The imaging was performed using Confocal Laser Scanning Microscope (Carl Zeiss AG). Assay for RhoA activation. For RhoA activation assay, the procedure followed the manufacture's instruction regarding RhoA G-LISA™ Activation Assay (Cytoskeleton). Briefly, grown cells were homogenized in a lysis buffer and were centrifuged at 14,000 rpm for 2 min. The supernatants, containing equal amount of proteins (60 μg/30 μl), were transferred into a 96 well plate and equal volumes of ice-cold binding buffer were added into each well. The plate was incubated for 30 min under shaking (400 rpm) at 4° C. Then they were incubated with diluted anti-RhoA primary antibodies followed by secondary antibodies while shaking (400 rpm) at room temperature for 45 min each. The plate was incubated with an HRP detection reagent for 15 min at 37° C. and, after addition of an HRP stop buffer, the absorbance was immediately recorded at 490 nm. Microarray and RT-PCR. Total cellular RNA was isolated using the RNAeasy spin columns with the DNAse digestion step. The purity and concentration were determined using a Nanoprop ND 1000 (Nanoprop Technologies, Delaware, USA) and a Bioanalyzer 2100 (Agilent, Waldbronn, Germany). All samples had 260/280 nm ratio above 1.8 and a 28S/18S ratio within 1.5-2. RNA (600 ng) was reverse transcribed into double-stranded complementary DNA (ds-cDNA) in the presence of RNA poly-A controls, RNA Spike-In Kit, Two-Color. The ds-cDNA was in vitro transcribed in the presence of Cy3 (control) and Cy5 (flavonoid-stimulated) labelled nucleotides using a Quick Amp labelling, two-color kit (Agilent P/N 5190-0444, Waldbronn, Germany). Transcription products (1.65 μg) were blocked, fragmented and hybridized to whole Mouse Genome 4×44k OligoMicroarrays (Agilent G4122F) for 17 h at 65° C. Arrays were then washed according to the manufacturer instructions and an Agilent Microarray Scanner used to measure the fluorescent intensity emitted by the labeled target. Total RNA was also reverse transcribed using oligo-dT primer and Superscript III enzyme (Invitrogen). […]

PC 12 cells = settings: via the ERK pathway, reference [1]; cited from earlier work
RhoA = RhoA G-LISA Activation Assay; assay type: cell-based; settings: RhoA Activator for 40 min after 48 hr isoquercitrin incubation (control)
Protocol: FIG. 6 illustrates RhoA activation. […] RhoA activity is depressed following administration of isoquercitrin for 48 hrs.
Cell culture. The NG108-15 neuroblastoma/glioma cells and ND7/23 rat DRG/mouse neuroblastoma cells were seeded at 10^4 cells/cm^2 on laminin coated wells and stimulated for 48 hours with 40 μM isoquercitrin (Cat No 00140585, Sigma) alone or in combination with either 10 μM Rho Kinase inhibitor Y-27632 (Cat No Y0503, Sigma) or 0.25 μg/ml Rho inhibitor Exoenzyme C3 Transferase (Cat No CT04, Cytoskeleton). Later, isoquercitrin stimulated cells were incubated with 0.2 unit/ml Rho Activator Calpeptin (Cat No CN01, Cytoskeleton) or, alternatively with 0.25 μM Phospholipase C inhibitor U73122 (Cat No 662035, Calbiochem). Live Cell Imaging. During incubation, cells were observed by time-lapse live cell imaging with Cell-IQ (Chip-Man Technologies, Ltd). Quantitative analysis of neurite length/cell was performed using Cell-IQ Analyser Software. Cell imaging by Immunofluorescence. […] The plate was incubated with an HRP detection reagent for 15 min at 37° C. and, after addition of an HRP stop buffer, the absorbance was immediately recorded at 490 nm. […] The purity and concentration were determined using a Nanoprop ND 1000 (Nanoprop Technologies, Delaware, USA) and a Bioanalyzer 2100 (Agilent, Waldbronn, Germany). […]

C[C@@H](N)[C@H]1CC[C@H](C(=O)Nc2ccncc2)CC1 [Y-27632]
cell morphology on ROCK inhibition [1]: elongated morphology

O=c1c(O[C@@H]2O[C@H](CO)[C@@H](O)[C@H](O)[C@H]2O)c(-c2ccc(O)c(O)c2)oc2cc(O)cc(O)c12 [isoquercitrin, quercetin-3-β-D-glycoside]
persistence of neurite networks ([2]; in comparison to the other substances tested): up to 4 days of culture | Fold-change, GABA A receptor-associated protein-like 1 Gene (NG108 cells): 2.361 | Fold-change, calcium and integrin binding 1 (calmyrin) Gene (NG108 cells): 1.297 | Fold-change, cholinergic receptor, nicotinic, alpha polypeptide 10 Gene (NG108 cells): 1.438 | Fold-change, cortactin binding protein 2 Gene (NG108 cells): 1.518 | Fold-change, dopamine receptor 4 Gene (NG108 cells): 1.248 | Fold-change, glutamate receptor, ionotropic, N-methyl D-aspartate-associated protein 1 Gene (NG108 cells): 1.595 | Fold-change, neural proliferation, differentiation and control gene 1 Gene (NG108 cells): 1.385 | Fold-change, neuroligin 2 Gene (NG108 cells): 1.266 | Fold-change, neurotrophin 5 Gene (NG108 cells): 1.325 | Fold-change, protein kinase C and casein kinase substrate in neurons 1 Gene (NG108 cells): 1.398 | Fold-change, reticulon 3 Gene (NG108 cells): 1.316 | Fold-change, synapsin I Gene (NG108 cells): 1.287 | Fold-change, synapsin II Gene (NG108 cells): 1.518 | Fold-change, synaptogyrin 1 Gene (NG108 cells): 2.130 | Fold-change, synaptopodin 2-like Gene (NG108 cells): 1.393 | Fold-change, synaptotagmin I Gene (NG108 cells): 1.934 | Fold-change, synaptotagmin IV Gene (NG108 cells): 1.825 | Fold-change, synaptotagmin XI Gene (NG108 cells): 1.913

O=c1c(O)c(-c2ccc(O)cc2)oc2cc(O)cc(O)c12 [kaempferol]
neurite formation [2]: significant neurites

O=c1c(O)c(-c2ccc(O)c(O)c2)oc2cc(O)ccc12 [fisetin]
neurite formation [2]: significant neurites | neurite outgrowth in PC 12 cells (PC 12 cells): induce neurite outgrowth

CCCC[C@@H](C=O)NC(=O)[C@H](CC(C)C)NC(=O)OCc1ccccc1 [RhoA Activator]
RhoA activation (G-LISA) after RhoA Activator (RhoA): increases RhoA activation
